Positions of bridges follow the written chain, without caps; N, C: chain ends. Non-standard residues stand in square brackets, D forms with d. Residues, ends and D or L forms follow the SMILES beside them. Hyp = O=C(O)[C@@H]1C[C@@H](O)CN1; Aib = CC(C)(N)C(=O)O
Columns and labels:
α9 nAChR = target: T1, α9 nAChR (Homo sapiens, UniProt Q9UGM1); test: BLI (biolayer interferometry) affinity of peptides to α9 nAChR; format: binding; conditions: NTA sensor, α9 nAChR 5 µg/mL, peptide 1.372-1000 nM in PBS
T1 construct: inferred from capture on NTA sensor
T1 sequence (Q9UGM1 23-479): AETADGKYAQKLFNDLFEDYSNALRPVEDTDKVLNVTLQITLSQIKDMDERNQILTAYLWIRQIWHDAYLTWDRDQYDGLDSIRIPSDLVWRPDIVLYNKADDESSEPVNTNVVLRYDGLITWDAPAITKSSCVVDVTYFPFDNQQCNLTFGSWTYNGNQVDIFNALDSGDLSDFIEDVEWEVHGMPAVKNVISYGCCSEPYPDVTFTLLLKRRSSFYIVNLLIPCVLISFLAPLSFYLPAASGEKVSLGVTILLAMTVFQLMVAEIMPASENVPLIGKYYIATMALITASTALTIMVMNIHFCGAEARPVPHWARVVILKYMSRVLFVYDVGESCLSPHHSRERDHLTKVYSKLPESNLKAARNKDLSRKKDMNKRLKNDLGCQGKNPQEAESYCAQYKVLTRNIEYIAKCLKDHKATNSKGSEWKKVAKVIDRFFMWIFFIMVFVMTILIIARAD
Excerpt: (§1) BLI is a label-free technology that converts optical interference signals occurring on the surface of BLI biosensors into real-time response signals. By monitoring the molecular binding process in real time, the system determines association rate constants (ka or kon), dissociation rate constants (kd or koff), and initial binding rates, and calculates affinity (KD) by fitting analysis. Here are the specific procedures: NTA sensors (Sartorius) were placed in a pre-wetting tray, which was then positioned in a black 96-well plate with 200 µL PBS per well. The NTA sensors were pre-wetted for at least 15 minutes. The target protein α9 nAChR was diluted in PBS to 5 µg/mL, with 200 µL added per well. Test peptides were dissolved in PBS and serially diluted threefold, with concentrations from high to low as 1000 nM, 333.3 nM, 111.1 nM, 37.04 nM, 12.35 nM, 4.115 nM, and 1.372 nM, with an additional well with PBS only as a zeroconcentration control. After equilibrating the instrument baseline, the NTA sensor was used to immobilize the target protein α9 nAChR. Once immobilization was complete, the baseline was re-equilibrated, followed by a 5-minute association and a 5-minute dissociation phase. Affinity measurements of the test peptides were conducted sequentially using the above procedure. The procedure for measuring peptide affinity to α7 nAChR was similar, except that the α7 nAChR concentration was 20 µg/mL. Tables 2 and 3 show the BLI-determined affinities of alanine-scan peptide analogs with target proteins, which identified sites on the parent peptide suitable for modification. Subsequently, single-site non-natural amino acid substituted peptides were evaluated by BLI for target protein affinity. Finally, multi-site combinatorial modified peptides were measured for affinity by BLI, leading to the selection of high-affinity peptides for further screen and drug development potential. Table 2 Test Results for Affinity of Modified Peptides to α9 nAChR

[1] = tested on: mouse oxaliplatin acute chemotherapy pain model; test: Mouse oxaliplatin chemotherapy pain model, multiple peptides (Example 8); format: in vivo; conditions: single dose 3 mg/kg s.c., 0.5-8 h post-dose, n=3
Protocol: Oxaliplatin was dissolved in 5% glucose solution to a concentration of 1 mg/mL. For model induction, each male C57 mouse (Shanghai Bikai Keyi Biotechnology Co., Ltd.) received a single intraperitoneal injection of oxaliplatin at 10 mg/kg. Mice in the negative control or blank control group received 5% glucose solution. Approximately one week after model induction, mechanical pain thresholds of the mice were measured three times per mouse, and the average value was calculated. Mice were then randomly assigned to groups based on their pain thresholds. Drug administration was carried out according to the dosing schedule shown in Table 7, with a single dose per mouse. Mechanical pain thresholds were measured at 0.5, 1, 2, 4, 6, and 8 h post-dose. […] Table 7 Dosing Scheme for Oxaliplatin Chemotherapy Pain Model in Mice

[2] = Plasma stability of AJ003-40 and AJ003-24 (HPLC, Example 4); format: in vitro ADME; conditions: human plasma; for main peak area: 2 mg/mL
Protocol: Peptides AJ003-40 and AJ003-24 were separately weighed and mixed with human plasma to prepare solutions at 2 mg/mL. 300 µL of peptide-containing plasma was mixed with 300 µL acetonitrile, centrifuged at 4°C and 12,000 rpm for 5 minutes, and the supernatant was filtered through an organic membrane. 200 µL of the filtrate was transferred to an LC vial as the 0 h sample. Peptide-containing plasma was incubated in a 37°C water bath. For AJ003-40, 300 µL of plasma was sampled at 24 h, mixed with 300 µL acetonitrile, centrifuged, filtered, and 200 µL of the filtrate was transferred to an LC vial as the 24 h sample. For AJ003-24, 300 µL of plasma was sampled at 22 h, processed similarly, and 200 µL of the filtrate was transferred to an LC vial as the 22 h sample.

α7 nAChR = α7 nAChR (Homo sapiens, UniProt P36544); test: BLI (biolayer interferometry) affinity of peptides to α7 nAChR; format: binding; parameters: inferred from the 'similar' procedure on NTA sensors; conditions: NTA sensor, α7 nAChR 20 µg/mL, peptide 1.372-1000 nM in PBS
Chain of α7 nAChR (P36544 23-502): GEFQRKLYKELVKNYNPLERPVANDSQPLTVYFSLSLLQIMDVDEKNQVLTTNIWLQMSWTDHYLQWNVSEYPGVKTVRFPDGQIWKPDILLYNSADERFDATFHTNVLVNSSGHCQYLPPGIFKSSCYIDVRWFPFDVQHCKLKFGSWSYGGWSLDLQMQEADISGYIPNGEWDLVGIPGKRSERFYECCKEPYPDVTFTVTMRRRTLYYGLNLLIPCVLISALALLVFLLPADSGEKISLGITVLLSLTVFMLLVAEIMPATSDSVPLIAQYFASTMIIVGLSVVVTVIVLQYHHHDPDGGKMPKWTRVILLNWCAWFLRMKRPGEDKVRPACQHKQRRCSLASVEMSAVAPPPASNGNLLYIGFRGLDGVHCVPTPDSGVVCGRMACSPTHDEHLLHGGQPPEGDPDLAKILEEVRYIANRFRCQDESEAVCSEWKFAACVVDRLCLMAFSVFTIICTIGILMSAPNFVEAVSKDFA
Excerpt: as §1

α9α10 nAChRs = α9α10 nAChRs (Homo sapiens, UniProt Q9GZZ6+Q9UGM1); conditions: cited from earlier work
Chain of α9α10 nAChRs (Q9UGM1 26-479 limits assumed): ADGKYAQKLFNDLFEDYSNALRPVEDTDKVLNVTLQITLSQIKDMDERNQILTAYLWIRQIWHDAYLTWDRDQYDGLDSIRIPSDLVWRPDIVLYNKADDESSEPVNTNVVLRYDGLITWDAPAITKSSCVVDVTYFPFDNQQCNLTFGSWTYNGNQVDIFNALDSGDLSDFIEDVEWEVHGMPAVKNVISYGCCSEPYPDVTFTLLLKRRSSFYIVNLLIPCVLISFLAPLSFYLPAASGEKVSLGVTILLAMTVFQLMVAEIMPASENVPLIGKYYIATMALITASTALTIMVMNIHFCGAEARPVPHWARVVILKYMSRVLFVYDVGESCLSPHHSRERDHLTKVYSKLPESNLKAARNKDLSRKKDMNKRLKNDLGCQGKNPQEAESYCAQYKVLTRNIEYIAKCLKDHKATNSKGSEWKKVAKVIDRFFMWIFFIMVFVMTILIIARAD
Chain of α9α10 nAChRs (Q9GZZ6 25-450): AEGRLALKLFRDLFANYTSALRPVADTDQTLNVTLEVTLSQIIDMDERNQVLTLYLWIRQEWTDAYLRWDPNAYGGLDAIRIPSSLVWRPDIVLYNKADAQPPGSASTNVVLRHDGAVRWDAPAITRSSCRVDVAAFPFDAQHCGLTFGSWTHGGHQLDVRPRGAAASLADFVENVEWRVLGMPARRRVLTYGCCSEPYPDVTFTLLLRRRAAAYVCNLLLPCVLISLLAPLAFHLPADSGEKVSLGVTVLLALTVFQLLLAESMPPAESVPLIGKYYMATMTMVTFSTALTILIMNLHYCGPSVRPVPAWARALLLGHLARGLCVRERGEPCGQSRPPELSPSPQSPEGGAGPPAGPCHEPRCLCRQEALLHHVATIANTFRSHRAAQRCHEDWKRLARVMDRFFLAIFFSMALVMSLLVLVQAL

Cav2.2 channel = Cav2.2 channel (Homo sapiens, UniProt Q00975); conditions: cited from earlier work
Chain of Cav2.2 channel (Q00975 whole entry, looked up): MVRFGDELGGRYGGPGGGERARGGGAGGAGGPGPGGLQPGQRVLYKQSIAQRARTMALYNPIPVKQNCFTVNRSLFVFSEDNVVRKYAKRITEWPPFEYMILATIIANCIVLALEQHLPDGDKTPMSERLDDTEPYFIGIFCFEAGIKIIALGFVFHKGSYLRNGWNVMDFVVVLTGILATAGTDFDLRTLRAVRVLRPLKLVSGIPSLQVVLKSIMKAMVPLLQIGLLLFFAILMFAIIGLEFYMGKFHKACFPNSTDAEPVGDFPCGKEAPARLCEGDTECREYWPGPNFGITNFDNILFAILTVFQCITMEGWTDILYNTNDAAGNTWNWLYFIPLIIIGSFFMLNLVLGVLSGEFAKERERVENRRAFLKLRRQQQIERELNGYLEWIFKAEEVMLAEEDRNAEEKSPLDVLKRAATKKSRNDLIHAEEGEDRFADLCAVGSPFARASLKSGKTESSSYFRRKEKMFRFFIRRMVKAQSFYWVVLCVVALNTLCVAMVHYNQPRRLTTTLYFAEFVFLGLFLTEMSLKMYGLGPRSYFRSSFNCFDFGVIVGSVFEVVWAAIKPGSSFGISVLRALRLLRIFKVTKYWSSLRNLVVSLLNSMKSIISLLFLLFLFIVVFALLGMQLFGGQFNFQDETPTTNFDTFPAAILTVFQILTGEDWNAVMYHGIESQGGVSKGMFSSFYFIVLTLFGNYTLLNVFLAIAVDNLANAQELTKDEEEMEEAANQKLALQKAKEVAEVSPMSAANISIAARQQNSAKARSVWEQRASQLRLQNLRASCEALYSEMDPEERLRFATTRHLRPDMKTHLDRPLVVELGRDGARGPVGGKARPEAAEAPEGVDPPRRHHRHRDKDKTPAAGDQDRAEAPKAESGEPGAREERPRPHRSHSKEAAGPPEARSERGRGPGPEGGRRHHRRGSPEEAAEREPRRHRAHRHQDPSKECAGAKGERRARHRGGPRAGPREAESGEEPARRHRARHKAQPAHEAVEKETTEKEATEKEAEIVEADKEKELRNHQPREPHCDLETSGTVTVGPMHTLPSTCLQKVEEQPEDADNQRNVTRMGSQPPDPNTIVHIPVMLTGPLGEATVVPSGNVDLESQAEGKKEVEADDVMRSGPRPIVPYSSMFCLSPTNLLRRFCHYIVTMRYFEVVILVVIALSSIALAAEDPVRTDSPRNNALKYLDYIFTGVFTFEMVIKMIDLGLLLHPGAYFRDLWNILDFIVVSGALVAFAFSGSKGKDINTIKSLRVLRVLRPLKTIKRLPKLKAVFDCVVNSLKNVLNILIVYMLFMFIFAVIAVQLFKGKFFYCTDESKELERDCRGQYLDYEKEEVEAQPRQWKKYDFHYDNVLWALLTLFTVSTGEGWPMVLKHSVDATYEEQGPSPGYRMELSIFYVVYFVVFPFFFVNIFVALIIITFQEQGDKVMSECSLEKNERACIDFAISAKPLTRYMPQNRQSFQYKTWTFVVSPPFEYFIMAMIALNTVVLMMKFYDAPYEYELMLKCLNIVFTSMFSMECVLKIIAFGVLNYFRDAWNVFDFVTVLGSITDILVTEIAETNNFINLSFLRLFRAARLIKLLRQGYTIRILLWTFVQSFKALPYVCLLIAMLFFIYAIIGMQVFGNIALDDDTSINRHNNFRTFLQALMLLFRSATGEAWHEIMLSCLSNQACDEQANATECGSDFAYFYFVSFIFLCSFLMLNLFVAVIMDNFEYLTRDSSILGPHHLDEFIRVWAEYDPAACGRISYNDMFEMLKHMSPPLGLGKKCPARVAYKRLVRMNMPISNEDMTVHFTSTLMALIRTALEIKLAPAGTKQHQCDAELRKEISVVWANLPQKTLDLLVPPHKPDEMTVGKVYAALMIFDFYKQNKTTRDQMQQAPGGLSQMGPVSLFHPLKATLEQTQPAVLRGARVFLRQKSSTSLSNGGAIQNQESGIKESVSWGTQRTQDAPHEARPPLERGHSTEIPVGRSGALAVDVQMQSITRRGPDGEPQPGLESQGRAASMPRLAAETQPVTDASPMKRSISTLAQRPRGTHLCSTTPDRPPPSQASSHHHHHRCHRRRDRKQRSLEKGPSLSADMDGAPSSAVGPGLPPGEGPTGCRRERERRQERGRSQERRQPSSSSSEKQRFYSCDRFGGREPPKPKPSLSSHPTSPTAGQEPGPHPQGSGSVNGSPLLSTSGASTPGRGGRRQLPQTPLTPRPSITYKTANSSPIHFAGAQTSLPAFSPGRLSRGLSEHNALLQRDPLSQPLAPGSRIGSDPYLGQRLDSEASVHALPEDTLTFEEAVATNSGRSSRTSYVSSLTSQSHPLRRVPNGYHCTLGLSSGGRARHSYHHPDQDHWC

For `CC(C)C[C@H](NC(=O)[C@@H](NC(=O)[C@H]1CSSC[C@H](NC(=O)[C@H](CO)NC(=O)CN)C(=O)N[C@@H](CO)C(=O)N[C@H]([C@H](C)O)C(=O)N2C[C@H](O)C[C@H]2C(=O)N2CCC[C@H]2C(=O)N[C@@H](CO)C(=O)N1)C(C)C)C(=O)N[C@@H](Cc1ccc(O)cc1)C(=O)N[C@@H](CO)C(=O)O` [AJ003-16, GSCS-(D-Thr)-Hyp-PS-(D-Cys)-VLYS (3,9 disulfide bond)] (H-GSCS[dT][Hyp]PS[dC]VLYS-OH; disulfide 3-9), the Kd (α9 nAChR) was 35.3 nM.

`CC(C)C[C@H](NC(=O)[C@@H](NC(=O)[C@H]1CSSC[C@H](NC(=O)[C@H](CO)NC(=O)CN)C(=O)N[C@@H](CO)C(=O)N[C@H]([C@H](C)O)C(=O)N2CCC[C@H]2C(=O)N2C[C@H](O)C[C@H]2C(=O)N[C@@H](CO)C(=O)N1)C(C)C)C(=O)N[C@@H](Cc1ccc(O)cc1)C(=O)N[C@@H](CO)C(=O)O` [AJ003-17, GSCS-(D-Thr)-P-Hyp-S-(D-Cys)-VLYS (3,9 disulfide bond)] (H-GSCS[dT]P[Hyp]S[dC]VLYS-OH; disulfide 3-9) gave a Kd (α9 nAChR) of 110 nM.

With `CC(C)C[C@H](NC(=O)[C@@H](NC(=O)[C@H]1CSSC[C@H](NC(=O)[C@H](CO)NC(=O)CN)C(=O)N[C@@H](CO)C(=O)N[C@H]([C@H](C)O)C(=O)N2CCC[C@H]2C(=O)N2CCC[C@H]2C(=O)NCC(=O)N1)C(C)C)C(=O)N[C@@H](Cc1ccc(O)cc1)C(=O)N[C@@H](CO)C(=O)O` [AJ003-24, GSCS-(D-Thr)-PPG-(D-Cys)-VLYS (3,9 disulfide bond)] (H-GSCS[dT]PPG[dC]VLYS-OH; disulfide 3-9) the “analgesic activity against oxaliplatin-induced chemotherapy pain (mechanical pain threshold compared with the model group)” value [1] was “ineffective”, the main peak area ([2]; 0 h) was 746.80 and the main peak area ([2]; 37°C, 22 h) was 267.45. It also gave a metabolised at 22 h, 2 mg/mL ([2]; 37°C, 22 h, read-out: degradation) of 64.2%.

With `CC(C)C[C@H](NC(=O)C(C)(C)NC(=O)[C@H]1CSSC[C@H](NC(=O)[C@H](CO)NC(=O)CN)C(=O)N[C@@H](CO)C(=O)N[C@H]([C@H](C)O)C(=O)N2CCC[C@H]2C(=O)N2CCC[C@H]2C(=O)N[C@@H](CO)C(=O)N1)C(=O)N[C@@H](Cc1ccc(O)cc1)C(=O)N[C@@H](CO)C(=O)O` [AJ003-25, GSCS-(D-Thr)-PPS-(D-Cys)-Aib-LYS (3,9 disulfide bond)] (H-GSCS[dT]PPS[dC][Aib]LYS-OH; disulfide 3-9) the “analgesic activity against oxaliplatin-induced chemotherapy pain (mechanical pain threshold compared with the model group)” value [1] was “ineffective” and the Kd (α7 nAChR) was 4670 nM.

For Vc1.1, the “reduction of activity on human receptors compared to rat receptors” value (α9α10 nAChRs) is listed as “approximately 100 fold”.

For ziconotide, the “analgesic potency relative to opioids” value (Cav2.2 channel) is listed as “approximately 1000 times”.
